The source of these data is patent US7192614B2, “Compositions and methods of treatment to alleviate or prevent migrainous headaches and their associated symptoms” (GelStat Corporation, priority 2002, dated 2007).

One data set has as its system migraine. The settings on record: cited from earlier work.
The next data set has as its system migraine headache. Briefly: Individual case reports, acute sublingual treatment of migraine headache (Examples 1-8, 10). The data set is classed as in vivo, human. The note with it: single subject. On the procedure:
A person in otherwise good health had suffered for years with consistently recurring migraine headaches, frequency approximately 1–3 times per month, average duration 4–12 hours, which headaches had proven refractory to standard pharmacological treatment. These migraine headaches were often accompanied by nausea, and infrequently by vomiting. Each occurrence of migraine headache rendered the individual unable to participate in the normal activities of daily living, both socially and professionally. Absenteeism from work and missed social engagements resulted from their frequent need to ensconce themself in a darkened, quiet room where they would ‘wait out’ the headache. The frequency and unpredictability of the migraine headaches caused substantial impairment even between events, this impairment associated with anxiety and the inability to plan any event with confidence. This individual used the present invention in a two (2) part sublingual administration regimen, wherein a first composition is administered sublingually, and allowed to reside under the tongue for a period of about sixty (60) seconds. A second identical composition is administered, following the start of administration of the first composition by approximately five (5) minutes. […]

Setting [1] is: 5 mg, placebo-controlled 2-attack study.
Setting [2] is: doses > or = 2.5 mg, Rapoport 1997.

With `CN(C)CCc1c[nH]c2ccc(C[C@H]3COC(=O)N3)cc12` [Zolmitriptan], in the data set on migraine (5 mg), the “pain free at 2 hours postdose” value is recorded as 31.1 % of attacks; the “pain-free response at 1 hour postdose” value is recorded as 10.6 % of attacks; the “sustained pain-free response at 24 hours” value is on record as “^9Among attacks treated with ZOMIG-ZMT 5 mg, a sustained pain-free response at 24 hours was achieved in 22.2% of attacks compared to 8.2% for placebo (P < .0001)^1 also unpublished data, see same web address as for #5”. In the data set with migraine (setting [1]), the “headache response at 30 minutes” value is 16.5 % of attacks and the “headache response at 2 hours” value is listed as 59 % of attacks. For the same compound, in the data set with migraine (Table 2, literature values), the “1 Hour headache response” value is on record as 44%^1, the “2 Hour complete headache response” value is given as 40–45%^6,7, the “2 Hour headache response” value was 66%^2,3,4 and the “2 hour pain free” value is recorded as 27–33%^8. Further, the “2 hour sustained pain free” value in the data set with migraine (Table 2, literature values) is given as 31%^9. In the data set with migraine (setting [2]), the “headache response rate at 1 hour” value is recorded as 44 to 51% and the “headache response rate at 2 hours” value is reported as 65 to 67%.

Consider `CNS(=O)(=O)Cc1ccc2[nH]cc(CCN(C)C)c2c1` [Sumatriptan], for which, in the data set with migraine (Table 2, literature values), the “1 Hour headache response” value is listed as 20%, the “2 Hour complete headache response” value was 36%, the “2 Hour headache response” value is reported as 59% and the “2 hour pain free” value is 29%. The subject-reported side effects result in the data set on migraine headache is ““weakness” and “exhaustion””. Besides, the “subject-reported relief of migraine headache and associated symptoms” value with migraine headache (two part sublingual regimen) is reported as “moderate success”.
